One assay relates to Aspergillus fumigatus. The assay is described as follows: Concentration required to inhibit 90-100% of visible fungal growth in Aspergillus fumigatus (WM1) tested in vitro. The assay is classed as functional.
A further assay relates to Candida albicans. Put plainly: Concentration required to inhibit 90-100% of visible fungal growth in Candida albicans (A26) tested in vitro. The assay is classed as functional.
The subject of assay [1] is Mus musculus. The assay is described as follows: Ability to induce tail vein irritation in mice administered intravenously determined by tail vein assay; Activity- clean. The assay is classed as functional, organism-based.
A further assay deals with Cryptococcus neoformans. The assay is described as follows: Concentration required to inhibit 90-100% of visible fungal growth in (M1 106) tested in vitro. The assay is classed as functional.
The test system of assay [2] is Mus musculus. Put plainly: Effective dose required to cure 50% of fungal infection in mice administered intraperitoneally tested in vivo. Format: functional.
In assay [3] the test system is Mus musculus. The assay is described as follows: Ability to induce tail vein irritation in mice administered intravenously determined by tail vein assay; Activity- Positive. Format: functional, organism-based.

Molecules are shown by their SMILES. Converted amounts (≈) assume the structure as drawn.

Broadly, the MIC is the smallest concentration in the dilution series that meets the test's criterion for growth inhibition. For orientation: ED50 means the midpoint of the dose-response relation. Read a high ED50 as a need for a large dose. For the molecule `C/C=C1/NC(=O)[C@H]([C@H](C)O)NC(=O)[C@H](CCN)NC(=O)[C@H](CCCCN)NC(=O)[C@H](CC(=O)O)NC(=O)[C@@H](CCN)NC(=O)[C@@H](NC(=O)C[C@H](O)CCCCCCCCCCC)COC(=O)[C@H]([C@H](O)CCl)NC(=O)[C@H]([C@H](O)C(=O)NCC(=O)OC)NC1=O`, the MIC against Aspergillus fumigatus was above 20 µg/mL; against Candida albicans, 2.5 µg/mL (≈ 1.95 µM); with Cryptococcus neoformans, 0.08 µg/mL (≈ 0.0626 µM). Besides, the Activity entry in the assay with Mus musculus [1] was “Activity- clean”. Also, the ED50 in the assay with Mus musculus [2] was above 20 mg/kg.
The corresponding values for `C/C=C1/NC(=O)[C@H]([C@H](C)O)NC(=O)[C@H](CCN)NC(=O)[C@H](CCCCN)NC(=O)[C@H](CC(=O)O)NC(=O)[C@@H](CCN)NC(=O)[C@@H](NC(=O)C[C@H](O)CCCCCCCCCCC)COC(=O)[C@H]([C@H](O)CCl)NC(=O)[C@H]([C@H](O)C(N)=O)NC1=O` are above 20 µg/mL, 0.312 µg/mL (≈ 0.259 µM), below 1 µg/mL, “Activity- clean” and above 20 mg/kg.
`C/C=C1/NC(=O)[C@H]([C@@H](C)O)NC(=O)[C@H](CCN)NC(=O)[C@H](CCCCN)NC(=O)[C@H](CC(=O)O)NC(=O)[C@@H](CCN)NC(=O)[C@@H](NC(=O)C[C@H](O)CCCCCCCCCCC)COC(=O)[C@H]([C@H](O)CCl)NC(=O)[C@H]([C@H](O)C(=O)NCC)NC1=O`: the MIC in the assay with Aspergillus fumigatus was above 20 µg/mL; in the assay on Candida albicans, 10 µg/mL (≈ 8.1 µM); in the assay with Cryptococcus neoformans, 1.25 µg/mL (≈ 1.01 µM).
As to `C/C=C1/NC(=O)[C@H]([C@H](C)O)NC(=O)[C@H](CCN)NC(=O)[C@H](CCCCN)NC(=O)[C@H](CC(=O)O)NC(=O)[C@@H](CCN)NC(=O)[C@@H](NC(=O)C[C@H](O)CCCCCCCCCCC)COC(=O)[C@H]([C@H](O)CCl)NC(=O)[C@H]([C@H](O)C(=O)NCCCC)NC1=O`, the MIC was above 20 µg/mL in the assay on Aspergillus fumigatus, 20 µg/mL (≈ 15.8 µM) in the assay with Candida albicans and 1.25 µg/mL (≈ 0.99 µM) against Cryptococcus neoformans. For the same molecule, the Activity result in the assay with Mus musculus [1] is given as “Activity- clean”. The same molecule gave an ED50 in the assay with Mus musculus [2] above 20 mg/kg.
For `C/C=C1/NC(=O)[C@H]([C@H](C)O)NC(=O)[C@H](CCN)NC(=O)[C@H](CCCCN)NC(=O)[C@H](CC(=O)O)NC(=O)[C@@H](CCN)NC(=O)[C@@H](NC(=O)C[C@H](O)CCCCCCCCCCC)COC(=O)[C@H]([C@H](O)CCl)NC(=O)[C@H]([C@H](O)C(=O)NC2CCC2)NC1=O`, in that order: above 20 µg/mL, 5 µg/mL (≈ 3.97 µM), 1.25 µg/mL (≈ 0.991 µM), “Activity- clean” and above 20 mg/kg.
Consider `C/C=C1/NC(=O)[C@H]([C@@H](C)O)NC(=O)[C@H](CCN)NC(=O)[C@H](CCCCN)NC(=O)[C@H](CC(=O)O)NC(=O)[C@@H](CCN)NC(=O)[C@@H](NC(=O)C[C@H](O)CCCCCCCCCCC)COC(=O)[C@H]([C@H](O)CCl)NC(=O)[C@H]([C@H](O)C(=O)NCCCN(C)C)NC1=O`, for which the minimum inhibitory concentration (MIC) in the assay on Aspergillus fumigatus was above 20 µg/mL; in the assay with Candida albicans, 20 µg/mL (≈ 15.5 µM); against Cryptococcus neoformans, 1.25 µg/mL (≈ 0.968 µM).
As to `C/C=C1\NC(=O)[C@H]([C@H](C)O)NC(=O)[C@H](CCN)NC(=O)[C@H](CCCCN)NC(=O)[C@H](CC(=O)O)NC(=O)[C@@H](CCN)NC(=O)[C@@H](NC(=O)C[C@H](O)CCCCCCCCCCC)COC(=O)[C@H]([C@H](O)CCl)NC(=O)[C@H]([C@H](O)C(=O)NCCC)NC1=O`, the minimum inhibitory concentration (MIC) in the assay with Aspergillus fumigatus is above 20 µg/mL; with Candida albicans it was 20 µg/mL (≈ 16 µM); in the assay on Cryptococcus neoformans, 5 µg/mL (≈ 4 µM). In addition, the Activity result in the assay on Mus musculus [1] is “Activity- clean”. The molecule also displayed an ED50 with Mus musculus [2] of 14 mg/kg.
The corresponding values for `C/C=C1/NC(=O)[C@H]([C@H](C)O)NC(=O)[C@H](CCN)NC(=O)[C@H](CCCCN)NC(=O)[C@H](CC(=O)O)NC(=O)[C@@H](CCN)NC(=O)[C@@H](NC(=O)C[C@H](O)CCCCCCCCCCC)COC(=O)[C@H]([C@H](O)CCl)NC(=O)[C@H]([C@H](O)C(=O)NCCN(C)C)NC1=O` are above 20 µg/mL, 5 µg/mL (≈ 3.91 µM), 1.25 µg/mL (≈ 0.978 µM), “Activity- clean” and above 20 mg/kg.
For `C/C=C1/NC(=O)[C@H]([C@H](C)O)NC(=O)[C@H](CCN)NC(=O)[C@H](CCCCN)NC(=O)[C@H](CC(=O)O)NC(=O)[C@@H](CCN)NC(=O)[C@@H](NC(=O)C[C@H](O)CCCCCCCCCCC)COC(=O)[C@H]([C@H](O)CCl)NC(=O)[C@H]([C@H](O)C(=O)NC)NC1=O`, the MIC against Aspergillus fumigatus is above 20 µg/mL; in the assay on Candida albicans, 1.25 µg/mL (≈ 1.02 µM); against Cryptococcus neoformans it was 0.156 µg/mL (≈ 0.128 µM). Besides, the Activity entry in the assay on Mus musculus [1] is “Activity- clean”. For the same molecule, in the assay on Mus musculus [2], the ED50 is above 20 mg/kg.
For `C/C=C1/NC(=O)[C@H]([C@H](C)O)NC(=O)[C@H](CCN)NC(=O)[C@H](CCCCN)NC(=O)[C@H](CC(=O)O)NC(=O)[C@@H](CCN)NC(=O)[C@@H](NC(=O)C[C@H](O)CCCCCCCCCCC)COC(=O)[C@H]([C@H](O)CCl)NC(=O)[C@H]([C@H](O)C(=O)NC2CC2)NC1=O`, in that order: above 20 µg/mL, 5 µg/mL (≈ 4.01 µM), 0.312 µg/mL (≈ 0.25 µM), “Activity- clean” and above 20 mg/kg.
As to `C/C=C1/NC(=O)[C@H]([C@H](C)O)NC(=O)[C@H](CCN)NC(=O)[C@H](CCCCN)NC(=O)[C@H](CC(=O)O)NC(=O)[C@@H](CCN)NC(=O)[C@@H](NC(=O)C[C@H](O)CCCCCCCCCCC)COC(=O)[C@H]([C@H](O)CCl)NC(=O)[C@H]([C@H](O)C(=O)NCCO)NC1=O`, the MIC in the assay on Aspergillus fumigatus was above 20 µg/mL; in the assay with Candida albicans, 5 µg/mL (≈ 4 µM); against Cryptococcus neoformans, 0.625 µg/mL (≈ 0.5 µM). Besides, in the assay on Mus musculus [1], the Activity result is listed as “Activity- clean”.
Turning to `C/C=C1/NC(=O)[C@H]([C@H](C)O)NC(=O)[C@H](CCN)NC(=O)[C@H](CCCCN)NC(=O)[C@H](CC(=O)O)NC(=O)[C@@H](CCN)NC(=O)[C@@H](NC(=O)C[C@H](O)CCCCCCCCCCC)COC(=O)[C@H]([C@H](O)CCl)NC(=O)[C@H]([C@H](O)C(=O)O)NC1=O`, the minimal inhibitory concentration (MIC) in the assay with Aspergillus fumigatus was above 20 µg/mL; against Candida albicans it was 0.625 µg/mL (≈ 0.517 µM); with Cryptococcus neoformans it was 0.078 µg/mL (≈ 0.0646 µM). In addition, the Activity entry in the assay on Mus musculus [3] is “Activity- Positive”.
Consider `C/C=C1\NC(=O)[C@H]([C@H](C)O)NC(=O)[C@H](CCN)NC(=O)[C@H](CCCCN)NC(=O)[C@H](CC(=O)O)NC(=O)[C@@H](CCN)NC(=O)[C@@H](NC(=O)C[C@H](O)CCCCCCCCCCC)COC(=O)[C@H]([C@H](O)CCl)NC(=O)[C@H]([C@H](O)C(=O)NC(Cc2ccccc2)C(=O)OC)NC1=O` (some centres undefined), for which the figures for the minimal inhibitory concentration (MIC) against Aspergillus fumigatus, in the assay on Candida albicans and with Cryptococcus neoformans were above 20 µg/mL, 10 µg/mL (≈ 7.3 µM) and 1.25 µg/mL (≈ 0.913 µM), respectively. In addition, the Activity result in the assay on Mus musculus [1] is on record as “Activity- clean”. The molecule further had a 50% effective dose (ED50) with Mus musculus [2] above 20 mg/kg.
